Molecules are shown by their SMILES. Converted amounts (≈) assume the structure as drawn.

The test system of assay [1] is CACO-2 (colorectal adenocarcinoma). Description: XTT cell viability assay, CACO-2. The class given is cell-based, human. The following applies: for IC50: Homo sapiens, XTT. As for the experimental part:
The human cell lines MCF-7 (breast adenocarcinoma), HepG2 (hepatoma), T24 (bladder cancer), CACO-2 (colorectal adenocarcinoma) and MRC5 (lung normal fibroblast) were obtained from the Rio de Janeiro Cell Bank (Rio de Janeiro, RJ, Brazil). The HCT116 cell (colorectal carcinoma), and HT29 cell (colorectal adenocarcinoma) were kindly provided by Dr. Annette K. Larsen (Institut National de la Santé et de la Recherche Médicale - INSERM, Paris, França). All cell lines except MCF-7 were grown in DMEM supplemented with 10% or 20% (for CACO-2) FBS, 100 units.mL^-1 penicillin and 100 μg.mL^-1 streptomycin at 37°C in a humidified atmosphere of 5% CO2. MCF-7 cells were maintained in RPMI-1640 supplemented with 20% FBS at the same conditions described above.
The cytotoxic potential of the TTHL was evaluated by the XTT assay in human tumor cell lines as well as in MRC5 normal fibroblasts. Cells (1 × 10^4 cells) were seeded on 96-well plates in growth medium and incubated overnight. Afterwards, TTHL (0.5, 1.0, 2.5, 5.0, and 10 μg/mL) was added to each well and incubated for 24, 48, 72, and 120 h. Mitoxantrone, a cytostatic anthracenedione that intercalates in DNA and increases the incidence of double-strand breaks by stabilizing the cleavable complex of topoisomerase II and DNA, was used as positive control. At the end of each treatment, cell viability was assessed according to the manufacturer’s instructions. Briefly, after discarding the medium, 1 mL of XTT labeling mixture was added to the cells and incubated for 2 h at 37°C. Absorbance was measured with a SpectraMax reader (Bio-Rad, USA) at a test wavelength of 492 nm (A492) and a reference wavelength of 690 nm (A690). The final result corresponds to A492-A690. The absorbance of negative control cells was set as 100% viability, and the values for treated cells were calculated as a percentage of the control.
The IC20, IC50, and IC80 values and their 95% confidence intervals (CI 95%) were obtained by nonlinear regression using GraphPad Prism v5 program (Intuitive Software for Science, San Diego, CA, USA). Selective index (SI) was calculated by IC50 in MRC5 cells/IC50 in tumoral cells. All experiments were independently repeated at least three times, with triplicate samples for each treatment. Results are expressed as means ± standard deviation (SD). Data were analyzed by one-way analysis of variance (ANOVA), and means were compared using Tukey test, with P ≤ 0.05 considered as statistically significant.
A general note: Formazan colour is commonly taken as a measure of viable cells.

The subject of assay [2] is intracellular ROS in MCF-7 cells. Description: ROS detection by flow cytometry (H2DCFDA). The class given is cell-based, human. Here is the method:
(§1) Cells (2 × 10^5 cells/mL) were seeded on 6-well tissue culture plates, and grown for 1 day up to 70–80% confluence before treatment with the test substance. The TTHL was added to medium with FBS to obtain the different concentrations, and cells were treated at 37°C for 24 h in humidified atmosphere containing 5% CO2.
Levels of intracellular ROS were estimated following treatment with TTHL using 2′,7′-dichlorofluorescein diacetate (H2DCFDA, Sigma) as a fluorescent probe. Detection of oxidative stress was done by incubating the cells with 20 μM of H2DCFDA for 20 min at 37°C. Cells were then detached by trypsinization and washed twice with PBS. After filtration through cell strainer cap, cells were analyzed using a FACS Calibur flow cytometer with CellQuest software in accordance with Bass et al.. A total of 10,000 events were measured per sample. DCF fluorescence intensity was shown in arbitrary units.

For assay [3], the system named is S. cerevisiae EG110 (sod2Δ). As to the kind of experiment: Yeast survival assay, EG110 (sod2Δ). In kind it is cell-based, Saccharomyces cerevisiae. The following applies: for survival (percentage in relation to negative control): STAT cells, 1 h in PBS 30°C. Here is the method:
(§2) Media, solutions and buffers were prepared according to Burke et al.. YPD medium (0.5% yeast extract, 2% peptone, 2% glucose) was used for routine growth. Synthetic medium SC (0.67% yeast nitrogen base, 0.1% ammonium sulfate, 2% glucose) supplemented with the appropriate amino acids and bases ([…]) was used for the detection of mutations.
(§3) Stationary phase (STAT) cultures were obtained by inoculation of a single colony into liquid YPD. We chose to work in the stationary phase of growth because this resembles most cells of multicellular organisms in important aspects: (i) most energy comes from mitochondrial respiration; (ii) the cells have left the active cell cycle and have entered the Go phase; and (iii) damage accumulates over time.
(§4) STAT cells (1 × 10^8 cells/mL) were exposed to TTHL (10–500 μg/mL) and incubated under growth conditions for 1 h in PBS at 30°C. Cells were then washed and treated with H2O2 (5 mM) in PBS for another hour. Suitable aliquots were plated in triplicate on solid YPD (2–3 days, 30°C) and colony-forming units were counted. Sensitivity was expressed as a percentage of survival in relation to the negative control (solvent).

In a further assay the test system is MCF-7 cells. As to the kind of experiment: Cell cycle distribution by flow cytometric analysis (PI). Conditions: MCF-7, 24 h. The class given is cell-based, human. Here is the method:
as §1
Cell cycle distribution determination analysis was performed as previously described. After treatment, cells were trypsinized, centrifuged and resuspended in ice-cold 70% ethanol, and left for 24 h at 4°C. Ethanol-fixed cells were centrifuged, washed with PBS and resuspended in buffer containing 0.2 mg/mL RNAse, 50 μg/mL PI and 0.1% Triton X-100, and incubated for 30 min at room temperature. Samples were analyzed on a FACS Calibur flow cytometer (Becton-Dikinson, San Fransisco, CA) using the CellQuest software. A total of 10,000 events were measured per sample. The data were analyzed to determine the percentage of cells at each phase of the cell cycle (sub-G1, G1, S and G2/M).
On the technique in general: In flow cytometry, cells or beads pass a laser one at a time.

In assay [4] the test system is S. cerevisiae EG133 (sod1Δsod2Δ). Description: Yeast survival assay, EG133 (sod1Δsod2Δ). Conditions: for survival (percentage in relation to negative control): STAT cells, 1 h in PBS 30°C. The class given is cell-based, Saccharomyces cerevisiae. As for the experimental part: as §2, §3, §4
[5] abbreviates: deficient in superoxide dismutase.

For the molecule `C=C(C)[C@@H]1CC[C@@]2(C)[C@H]1[C@H]1CC[C@@H]3[C@@]4(C)CC[C@H](O)C(C)(C)[C@@H]4[C@H](O)C[C@@]3(C)[C@]1(C)C[C@@H]2O` [TTHL, 3β,6β,16β-trihydroxy-lup-20(29)-ene], the IC50 in assay [1] (CACO-2, 24 h treatment) is 8.55 ± 0.35 µg/mL (≈ 18.6 µM); in assay [1] (CACO-2, 48 h treatment) it was 7.9 ± 0.28 µg/mL (≈ 17.2 µM); in assay [1] (CACO-2, 72 h treatment), 6.35 ± 0.35 µg/mL (≈ 13.8 µM); in assay [1] (CACO-2, 120 h treatment), 5 ± 0.19 µg/mL (≈ 10.9 µM). The “Selectivity index (SI)” value in assay [1] (IC50 in MRC5 cells/IC50 in CACO-2, 24 h) was “MR (MR: more resistant in tumoral cells)”; in assay [1] (IC50 in MRC5 cells/IC50 in CACO-2, 48 h) it was “MR (MR: more resistant in tumoral cells)”; in assay [1] (IC50 in MRC5 cells/IC50 in CACO-2, 72 h), 1 X; in assay [1] (IC50 in MRC5 cells/IC50 in CACO-2, 120 h), 1 X. Besides, the “increase in intracellular ROS production” value turned out to be 49% in assay [2] (MCF-7, 24 h treatment at IC50) and 64% in assay [2] (MCF-7, 24 h treatment at IC80). For the same molecule, the “survival (percentage in relation to negative control)” value came out at 83.20 ± 3.68 % in assay [3] (TTHL 10 μg/mL); 72.90 ± 7.07 % in assay [3] (TTHL 50 μg/mL); 62.25 ± 3.32 % in assay [3] (TTHL 100 μg/mL); 56.65 ± 1.06 % in assay [3] (TTHL 500 μg/mL); 79.35 ± 2.19 % in assay [4] (TTHL 10 μg/mL); 67.85 ± 10.54 % in assay [4] (TTHL 50 μg/mL). In addition, the figures for the “survival (percentage in relation to negative control)” value in assay [4] (TTHL 100 μg/mL) and in assay [4] (TTHL 500 μg/mL) were 58.15 ± 3.89 % and 41.45 ± 4.03 %, respectively. In addition, the “sensitivity of the strain to TTHL (in words)” value in assay [3] (setting [5]) and in assay [4] (setting [5]) was “hypersensitive” each time. Moreover, the “change in cell cycle progression” value with MCF-7 cells (TTHL at IC20, IC50, IC80) is listed as “no significant change in cell cycle progression”. Also, the sub-G1 population entry in the assay on MCF-7 cells (seen at IC50 and IC80, concentration-dependent) is “significant increase in the sub-G1 population”.

What is called IC50 is the concentration that inhibits the measured activity by half.

Source of the values: paper PMC4129108, “The natural triterpene 3β,6β,16β-trihydroxy-lup-20(29)-ene obtained from the flowers of Combretum leprosum induces apoptosis in MCF-7 breast cancer cells” (BMC Complementary and Alternative Medicine, 2014).
